In ChEMBL document CHEMBL1201862, “PubChem BioAssay data set” (2004):
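Cells were grown in 96-well plates and exposed to each compound for 48 hours at five concentrations; endpoints were interpolated linearly between bracketing concentrations, or set to the highest concentration if not reached. The concentration for 50% growth inhibition is given as GI50.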 Calls of active or inactive are those of the source. Rule as the data show it: active = GI50 up to about 1.1 µM and inactive = higher.

Tests used:
Assay in all cases: inhibition of tumour cell growth, NCI panel, 48 h
DU-145 = system: DU-145
EKVX = system: EKVX
HCC 2998 = system: HCC 2998
HCT-15 = system: HCT-15
HOP-62 = system: HOP-62
HOP-92 = system: HOP-92
KM12 = system: KM12
MDA-N = system: MDA-N
MOLT-4 = system: MOLT-4
NCI-H226 = system: NCI-H226
NCI-H460 = system: NCI-H460
RXF 393 = system: RXF 393
SF-268 = system: SF-268
SF-295 = system: SF-295
SF-539 = system: SF-539
SN12C = system: SN12C
SNB-75 = system: SNB-75
SW-620 = system: SW-620
TK-10 = system: TK-10
U-251 = system: U-251

Compound | GI50 (DU-145) | GI50 (EKVX) | GI50 (HCC 2998) | GI50 (HCT-15) [µM] | GI50 (HOP-62) | GI50 (HOP-92) | GI50 (KM12) | GI50 (MDA-N) | GI50 (MOLT-4) | GI50 (NCI-H226) | GI50 (NCI-H460) | GI50 (RXF 393) | GI50 (SF-268) | GI50 (SF-295) | GI50 (SF-539) | GI50 (SN12C) | GI50 (SNB-75) | GI50 (SW-620) | GI50 (TK-10) | GI50 (U-251)
O=C(O)c1ccc(Nc2cnc3ccc(C(F)(F)F)cc3n2)cc1 | 23.9 µM (inactive) | 38.2 µM (inactive) | 6.61 µM (inactive) | 18.7 | 16.1 µM (inactive) | 15.5 µM (inactive) | 16.5 µM (inactive) | 17 µM (inactive) | 19.9 µM (inactive) | 14.2 µM (inactive) | 28.1 µM (inactive) | 12.6 µM (inactive) | 31 µM (inactive) | 19.6 µM (inactive) | 23.9 µM (inactive) | 25.5 µM (inactive) | 11.7 µM (inactive) | 20.9 µM (inactive) | 13.6 µM (inactive) | 24.7 µM (inactive)
CN(C)P(=O)(Oc1ccc(CC(NC(=O)OCc2ccccc2)C(=O)OCc2ccccc2)cc1)N(C)C (stereo not given) | 15.7 µM (inactive) | 15.7 µM (inactive) | 18.3 µM (inactive) | 17.4 | 17.1 µM (inactive) | 17.8 µM (inactive) | 20 µM (inactive) | 16.8 µM (inactive) | 3.35 µM (inactive) | 26.4 µM (inactive) | 21 µM (inactive) | 17.5 µM (inactive) | 13.4 µM (inactive) | 18.2 µM (inactive) | 22.3 µM (inactive) | 15.1 µM (inactive) | 17.2 µM (inactive) | 18.2 µM (inactive) | 21.7 µM (inactive) | 13.8 µM (inactive)
C/C(=N\NC(N)=S)c1ccccn1.OB(O)c1ccccc1 | 3.3 µM (inactive) | 4.69 µM (inactive) | 4.36 µM (inactive) | 2.84 | 5.5 µM (inactive) | 10.4 µM (inactive) | 7.45 µM (inactive) | 7.53 µM (inactive) | 2.07 µM (inactive) | 6.12 µM (inactive) | 3.78 µM (inactive) | 2.37 µM (inactive) | 2.67 µM (inactive) | 7.05 µM (inactive) | 3.6 µM (inactive) | 3.52 µM (inactive) | 12.9 µM (inactive) | 5.93 µM (inactive) | 14 µM (inactive) | 3.28 µM (inactive)
O=c1[nH]c(=O)n(C2CC(O)C(CO)O2)c2nc3cc4ccccc4cc3nc12 (stereo not given) | > 100 µM (inactive) | > 100 µM (inactive) | > 100 µM (inactive) | > 100 | 33.9 µM (inactive) | 79.1 µM (inactive) | > 100 µM (inactive) | > 100 µM (inactive) | 61.7 µM (inactive) | > 100 µM (inactive) | > 100 µM (inactive) | 26.5 µM (inactive) | 73.1 µM (inactive) | 75.2 µM (inactive) | > 100 µM (inactive) | > 100 µM (inactive) | 74.8 µM (inactive) | > 100 µM (inactive) | > 100 µM (inactive) | 59.2 µM (inactive)
O=C1c2c(F)c(F)c(F)c(F)c2SC2=NCCN12 | 17.3 µM (inactive) | 19.3 µM (inactive) | 14.5 µM (inactive) | 2.81 | 18.1 µM (inactive) | 3.78 µM (inactive) | 12.6 µM (inactive) | 3.45 µM (inactive) | 2.24 µM (inactive) | 16.2 µM (inactive) | 6.53 µM (inactive) | 2.47 µM (inactive) | 12.8 µM (inactive) | 17.5 µM (inactive) | 16.3 µM (inactive) | 9.25 µM (inactive) | 16 µM (inactive) | 2.38 µM (inactive) | 8.69 µM (inactive) | 8.87 µM (inactive)
COC(=O)c1ccc2c(c1)CC1(C2)Cc2cc3c(c(C(=O)OC)c2C1)CCCC3 (stereo not given) | > 100 µM (inactive) | 60 µM (inactive) | 86.5 µM (inactive) | 67.8 | > 100 µM (inactive) | 22.4 µM (inactive) | > 100 µM (inactive) | 93.1 µM (inactive) | 42.7 µM (inactive) | 96.8 µM (inactive) | 96.6 µM (inactive) | > 100 µM (inactive) | > 100 µM (inactive) | 50 µM (inactive) | > 100 µM (inactive) | 50.1 µM (inactive) | 77.6 µM (inactive) | > 100 µM (inactive) | 72.1 µM (inactive) | 61.7 µM (inactive)
CCOC(=O)c1sc(=S)n(-c2ccc(Cl)cc2)c1-n1cc(-c2ccccc2)c(C#N)c1N | 6.81 µM (inactive) | 22.5 µM (inactive) | 34.2 µM (inactive) | 42.8 | 3.13 µM (inactive) | 15.4 µM (inactive) | > 100 µM (inactive) | 50.8 µM (inactive) | > 100 µM (inactive) | 13.6 µM (inactive) | 22.3 µM (inactive) | 15.4 µM (inactive) | 2.72 µM (inactive) | 13.3 µM (inactive) | 19.8 µM (inactive) | 18.6 µM (inactive) | 16 µM (inactive) | 53 µM (inactive) | 11.3 µM (inactive) | 15.2 µM (inactive)
COc1cc2oc3ccccc3c(=O)c2cc1CSc1ccccc1N | 21.1 µM (inactive) | 24.1 µM (inactive) | 5.24 µM (inactive) | 6.95 | 22.8 µM (inactive) | 35.2 µM (inactive) | 4.62 µM (inactive) | 3.27 µM (inactive) | 4.83 µM (inactive) | 73.6 µM (inactive) | 15.1 µM (inactive) | 11 µM (inactive) | 41.1 µM (inactive) | 14.2 µM (inactive) | 45.3 µM (inactive) | 46.8 µM (inactive) | 30.8 µM (inactive) | 6.81 µM (inactive) | 35.5 µM (inactive) | 22.9 µM (inactive)
O=C1c2cc3ccccc3cc2C2(c3ccc(Cl)cc3)NCCN12 (stereo not given) | 40.6 µM (inactive) | 26.5 µM (inactive) | 21.1 µM (inactive) | 27 | 32.4 µM (inactive) | 34.4 µM (inactive) | 20.7 µM (inactive) | 28.2 µM (inactive) | 33.2 µM (inactive) | 34.5 µM (inactive) | 29.6 µM (inactive) | 21.8 µM (inactive) | 44.2 µM (inactive) | 25.5 µM (inactive) | 23 µM (inactive) | 49.5 µM (inactive) | 27.8 µM (inactive) | 50.4 µM (inactive) | 34.8 µM (inactive) | 34.9 µM (inactive)
